We go through 3 compounds from article PMC11062903, “Discovery of potent inhibitors of α-synuclein aggregation using structure-based iterative learning” (Nature Chemical Biology, 2024).

One may read the Kd as the equilibrium constant for the complex coming apart. The low end stands for tighter binding, the high end for weaker binding.

“Also recorded” adds a separate entry of the source. Like-named read-outs stand apart in the source and are kept apart here.

Test [1] concerns the target T1, Aβ42 secondary nucleation (Homo sapiens, UniProt P05067).
T1 construct: The recombinant Aβ42 peptide ([…] […] […] […] IA), here called Aβ42; made in house; host or cells: Escherichia coli BL21 Gold (DE3)
Description: seeded Aβ42 aggregation kinetics (ThT). Format: biochemical. The following applies: 2 μM Aβ42, 40 nM seed, pH 8. How it is done: (§1) Solutions of monomeric Aβ42 were prepared by dissolving the lyophilized Aβ42 peptide in 6 M guanidinium hydrocholoride (GuHCl). Monomeric forms were purified from potential oligomeric species and salt using a Superdex 75 10/300 GL column (GE Healthcare) at a flow rate of 0.5 ml min^−1, and were eluted in 20 mM sodium phosphate buffer, pH 8 supplemented with 200 µM EDTA and 0.02% NaN3. The center of the peak was collected and the peptide concentration was determined from the absorbance of the integrated peak area using ε280 = 1,490 l mol^−1 cm^−1. The obtained monomer was diluted with buffer to the desired concentration and supplemented with 20 μM ThT from a 2 mM stock. Each sample was then pipetted into multiple wells of a 96-well half-area, low-binding, clear-bottom and polyethylene glycol-coated plate (Corning 3881), 80 µl per well, in the absence and the presence of different molar-equivalents of small molecules (1% DMSO). Assays were initiated by placing the 96-well plate at 37 °C under quiescent conditions in a plate reader (Fluostar Omega, Fluostar Optima or Fluostar Galaxy, BMGLabtech). The ThT fluorescence was measured through the bottom of the plate using a 440 nm excitation filter and a 480 nm emission filter. Fibrils were extracted directly from wells and used on the day for SPR experiments.

A further test concerns the target T2, αS fibrils (Homo sapiens, UniProt P37840).
T2 construct: made in house; host or cells: E. coli BL21 (DE3)
The test is described as follows: SPR binding to immobilized αS fibrils. The conditions noted are these: 1:1 kinetic binding model; for kd / kon: error s.e.m.; for kon: read-out: ka. How it is done:
All work was carried out using Biacore T200 at 25 °C. CM5 chips were activated by flowing 0.01 M N-hydroxysuccinimide, 0.4 M […] at a flow rate of 10 µl min^−1 for 7 min over two lanes. Preformed αS or Aβ42 fibrils (derived from the endpoints of low seeded aggregation reactions) at a concentration of 1 µM in sodium acetate (10 mM, pH 4.0) were injected onto a single lane in 60 s bursts at 5 µl min^−1 until a response of 2,000 units was reached. […] Different small molecule concentrations were then flowed over both lanes in a pyramidal arrangement in duplicate with blank subtraction (association time 3 min, dissociation time 10 min). The running buffer was sodium phosphate (20 mM, 1 mM EDTA, variable pH) with 1% DMSO. Fitting was carried out on Biacore T200 Evaluation Software, version 3.2, using a 1:1 binding model with the refractive index set to a constant value of 0 response units.
For orientation: In SPR one partner is held on a chip, and binding of the other changes the refractive index at the surface.

Test [2] concerns the target T3, αS aggregation (surface-catalyzed secondary nucleation) (Homo sapiens, UniProt P37840).
T3 construct: made in house; host or cells: E. coli BL21 (DE3)
Description: light seeded αS aggregation chemical kinetics assay (ThT), secondary nucleation. In kind it is biochemical.
Description: Secondary nucleation is enabled by adding a small amount of preformed fibrils to a monomeric mixture. Aggregation was tracked using the amyloid binding dye, thioflavin T (ThT).
αS was injected into a Superdex 75 10/300 GL column (GE Healthcare) at a flow rate of 0.5 ml min^−1 and eluted in 20 mM sodium phosphate buffer (pH 4.8) supplemented with 1 mM EDTA. The obtained monomer was diluted in buffer to a desired concentration and supplemented with 50 µM ThT and preformed αS fibril seeds. The molecules (or DMSO alone) were then added at the desired concentration to a final DMSO concentration of 1% (v/v). […] The assay was then initiated by placing the microplate at 37 °C under quiescent conditions in a plate reader (FLUOstar Omega, BMG Labtech). The ThT fluorescence was measured through the bottom of the plate with a 440 nm excitation filter and a 480 nm emission filter.
In the presence of low concentrations of seeds (approximately nanomolar), the fibril mass fraction, M(t), over time was described using a generalized logistic function to the normalized aggregation data[9],[70] M(t)/mtot=1−1/1+a/ce^κt^c where mtot denotes the total concentration of αS monomers. The parameters a and c are defined as a=λ^2/2κ^2 c=2/n2(n2+1). […]

Another test deals with T4, Aβ42 fibrils (Homo sapiens, UniProt P05067).
T4 construct: The recombinant Aβ42 peptide ([…] […] […] […] IA), here called Aβ42; made in house; host or cells: Escherichia coli BL21 Gold (DE3)
T4 sequence (P05067 671-713): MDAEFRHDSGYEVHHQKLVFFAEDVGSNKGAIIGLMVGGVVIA
Description: SPR binding to immobilized Aβ42 fibrils. The conditions noted are these: pH 8. On the procedure: as §1
All work was carried out using Biacore T200 at 25 °C. […]

In test [3] the target is T3, αS aggregation (surface-catalyzed secondary nucleation). Details: method as in PMID 36374974. The conditions noted are these: cited from earlier work.

T1 sequence (P05067 671-713): as above

In the case of `O=C1NN(c2ccc(F)cc2)C(=O)/C1=C/c1ccc(-c2ccc(Cl)c(C(=O)O)c2)o1` [I4.05], the “effect on seeded aggregation of Aβ42” value in test [1] is recorded as “unable to effectively inhibit Aβ42 secondary nucleation; also recorded: no effect”. For the same compound, at αS fibrils (pH 4.8), the Kd is 68 nM, the kd was 1.315 ± 0.003 × 10^−2 s^−1 and the kon was determined as 194000 ± 7e+07 M⁻¹ s⁻¹. At αS fibrils (pH 8), binding was characterised by a dissociation constant (Kd) of 13 nM, the kd is 0.781 ± 0.002 × 10^−2 s^−1 and the kon turned out to be 588000 ± 2.4e+08 M⁻¹ s⁻¹. For the same compound, the IC50 in test [2] (1/t1/2 fitted to a Hill slope, 10 µM αS, 25 nM seeds, pH 4.8, 37 °C, read-out: KIC50 (concentration at which t1/2 is increased by 50% with respect to the control)) was found to be 520 nM. Further, on Aβ42 fibrils, the “binding to Aβ42 fibrils” value was “unable to effectively inhibit Aβ42 secondary nucleation or bind to Aβ42 fibrils; also recorded: nor does it bind effectively to Aβ42 fibrils”.

Consider `Cc1c(OCc2nnn[nH]2)ccc2c1oc(=O)c1ccccc12` [molecule 48], for which the “activity in aggregation assays (docking set)” value in test [3] is “active”.

With `O=C1NN(c2ccccc2)C(=O)C1=Cc1coc2ccccc2c1=O` [molecule 69], in test [3], the “activity in aggregation assays (docking set)” value is “active”. In test [2] (extrapolated from Hill fit of 1/t1/2, read-out: extrapolated KIC50), the IC50 was 18200 nM.
